The values that follow come from article PMC8708252, “Silymarin Dehydroflavonolignans Chelate Zinc and Partially Inhibit Alcohol Dehydrogenase” (Nutrients, 2021).

Holding throughout (type): biochemical
The target of assay [1] is T1, bovine glutamate dehydrogenase type I (GDH) (Bos taurus, UniProt P00366).
T1 construct: gene GLUD1
Kind of assay: NADH absorbance ([…] nm) assay with and without […] zinc.

The target in assay [2] is T2, equine alcohol dehydrogenase (ADH) (Equus caballus, UniProt P00327).
T2 construct: recombinant equine ADH
Kind of assay: NADH absorbance ([…] nm) ethanol oxidation assay with recombinant enzyme.

Assay [3] concerns the target T2, equine alcohol dehydrogenase (ADH). Described as above. The source holds these as a separate data set.
Assay [4] shares this target. The assay is described as above. This is another data set of the same source.
Assay [5] addresses T3, yeast alcohol dehydrogenase (ADH) (Saccharomyces cerevisiae, UniProt P00330).
T3 construct: gene ADH1
T3 sequence (P00330 2-348): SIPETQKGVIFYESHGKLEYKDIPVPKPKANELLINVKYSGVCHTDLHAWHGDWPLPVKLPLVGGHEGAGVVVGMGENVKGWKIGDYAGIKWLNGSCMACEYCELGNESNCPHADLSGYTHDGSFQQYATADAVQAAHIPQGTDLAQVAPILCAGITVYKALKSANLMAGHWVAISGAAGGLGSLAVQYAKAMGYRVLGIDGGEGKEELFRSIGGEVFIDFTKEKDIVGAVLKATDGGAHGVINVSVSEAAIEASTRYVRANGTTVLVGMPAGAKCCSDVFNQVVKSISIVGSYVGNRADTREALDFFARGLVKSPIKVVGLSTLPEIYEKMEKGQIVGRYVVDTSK
Kind of assay: NADH absorbance ([…] nm) ethanol oxidation assay with isolated enzyme.

T2 sequence (P00327 2-375): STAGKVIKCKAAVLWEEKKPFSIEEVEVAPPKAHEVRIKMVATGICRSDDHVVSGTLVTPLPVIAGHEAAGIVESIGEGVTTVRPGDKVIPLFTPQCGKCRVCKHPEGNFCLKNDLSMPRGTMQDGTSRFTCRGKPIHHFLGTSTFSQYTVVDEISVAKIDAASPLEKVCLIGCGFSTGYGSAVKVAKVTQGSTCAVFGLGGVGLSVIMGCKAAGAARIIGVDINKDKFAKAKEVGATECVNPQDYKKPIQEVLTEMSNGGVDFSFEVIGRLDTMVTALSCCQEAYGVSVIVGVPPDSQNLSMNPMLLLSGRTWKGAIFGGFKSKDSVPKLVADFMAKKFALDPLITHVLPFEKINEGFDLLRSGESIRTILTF
T1 sequence (P00366 58-558): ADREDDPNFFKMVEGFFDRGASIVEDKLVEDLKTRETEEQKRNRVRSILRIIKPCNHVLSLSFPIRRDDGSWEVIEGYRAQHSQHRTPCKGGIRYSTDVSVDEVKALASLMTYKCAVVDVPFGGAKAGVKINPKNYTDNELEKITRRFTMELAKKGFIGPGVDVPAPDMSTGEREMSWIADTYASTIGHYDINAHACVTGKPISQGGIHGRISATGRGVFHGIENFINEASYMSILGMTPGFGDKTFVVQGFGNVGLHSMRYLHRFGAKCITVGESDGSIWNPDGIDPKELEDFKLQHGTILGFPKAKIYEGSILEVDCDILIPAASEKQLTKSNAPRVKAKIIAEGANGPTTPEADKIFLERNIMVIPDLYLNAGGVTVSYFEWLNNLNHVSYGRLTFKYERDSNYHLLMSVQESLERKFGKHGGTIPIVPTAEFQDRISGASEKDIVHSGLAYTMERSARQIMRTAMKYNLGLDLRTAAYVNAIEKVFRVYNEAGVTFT

Consider `COc1cc(C2Oc3cc(-c4oc5cc(O)cc(O)c5c(=O)c4O)ccc3OC2CO)ccc1O` (racemic) [DHS, 2,3-dehydrosilybin], for which, in assay [1], the “NADH absorbance (340 nm) assay with and without 150 μM zinc” value was “they were particularly potent inhibitors of the enzyme itself”.
As usually defined, the inhibition is the change of the read-out against control, counted positive when it falls. In the case of `COc1cc([C@H]2Oc3cc(-c4oc5cc(O)cc(O)c5c(=O)c4O)ccc3O[C@@H]2CO)ccc1O` [DHS-A, 2,3-dehydrosilybin A], the inhibition at 10 µM in assay [2] was around 20%.
Turning to `COc1cc([C@@H]2Oc3cc(-c4oc5cc(O)cc(O)c5c(=O)c4O)ccc3O[C@H]2CO)ccc1O` [DHS-B, 2,3-dehydrosilybin B], the “NADH absorbance (340 nm) ethanol oxidation assay with recombinant enzyme” value in assay [3] is reported as “Inhibition of equine ADH by active flavonolignans”.
Usually IC50 stands for the concentration that gives 50% inhibition. With `Cc1cn[nH]c1` [fomepizole], the IC50 came to 0.00525 mM in assay [4] and 14 mM in assay [5].
